Experimental data taken from the Kinase Knowledgebase extract (Sharma et al. 2016).

What follows are compounds tested against CDK2 (human) (UniProt P24941) (assay: Enzyme Assay). Conditions: concentration not given here.

| Structure (SMILES) | inhibition [%] |
| --- | --- |
| Nc1nc(NC2CCN(C(=O)C3CCc4ccccc4O3)CC2)sc1C(=O)c1c(F)cccc1F (stereo unspecified) | 6 |
| CC(C)(O)C(=O)N1CCC(Nc2nc(N)c(C(=O)c3c(F)cccc3F)s2)CC1 | 50 |
| Nc1nc(NC2CCN(C(=O)c3cnc4ccccc4n3)CC2)sc1C(=O)c1c(F)cccc1F | 61 |
| Nc1nc(NC2CCN(C(=O)c3ccoc3)CC2)sc1C(=O)c1c(F)cccc1F | 34 |
| NC(=S)Nc1cccc(C(=O)N2CCC(Nc3nc(N)c(C(=O)c4c(F)cccc4F)s3)CC2)c1 | 75 |
| CC(=O)C(O)(C(=O)N1CCC(Nc2nc(N)c(C(=O)c3c(F)cccc3F)s2)CC1)c1ccccc1 (stereo unspecified) | 26 |
